Experimental data reported in patent US9539256B2 (THE BOARD OF REGENTS OF THE UNIVERSITY OF TEXAS SYSTEM, priority 2012, dated 2017).

Experiments:
type I PKA holoenzyme = assay: PKA counter screening, type I holoenzyme; assay type: biochemical; details: 25 μM compound
Method: (§1) Kinase activity of the type I and II PKA holoenzyme are measured spectrophotometrically in a 96-well plate with a coupled enzyme assay as described previously (Cook et al. (1982) Biochemistry 21: 5794-5799). In this assay, the formation of ADP is coupled to the oxidation of NADH by the pyruvate kinase/lactate dehydrogenase reactions so the reaction rate can be determined by following the oxidation of NADH, reflected by a decrease in absorbance at 340 nm. […] Reactions are pre-equilibrated at room temperature and initiated by adding the Kemptide substrate (final concentration 0.26 mM).

type II PKA holoenzyme = assay: PKA counter screening, type II holoenzyme; assay type: biochemical; details: 25 μM compound
Method: as §1

EPAC2 [1] = biological target: T1, EPAC2 (Homo sapiens, UniProt Q8WZA2); assay: Rap1 activation assay in HEK293/EPAC2 cells; assay type: cell-based; details: for 007-AM induced Rap1 activation: HEK293/EPAC2 cells, pre-treatment with 10 μM compound
T1 construct: HEK293 cells that ectopically express full-length EPAC2 proteins; expressed in transfected cells; host or cells: HEK293
Method: (§2) FIGS. 9A-9B. Effects of EPAC2-specific antagonists on 007-AM-mediated cellular activation of Rap1. […] GTP-bound Rap1 (Rap1GTP) obtained by a Ral-GDSRBD-GST pull-down assay and total cellular Rap1 were detected by immunoblotting with Rap1-specific antibody. […] At test was used to determine statistical significance (*P<0.05).
(§3) Cellular activation of Rap1 was determined by pull-down of lysates derived from human vascular smooth muscle cell and HEK293 cells stably expressing EPAC1 or EPAC2 employing Ral-GDS-RBD-GST affinity beads as described earlier (Mei and Cheng (2005) Molecular Biosystems 1: 325-331).

EPAC2 [2] = biological target: T2, EPAC2 (Mus musculus, UniProt Q9EQZ6); assay: 8-NBD-cAMP competition binding to EPAC2
T2 sequence (Q9EQZ6 1-1011): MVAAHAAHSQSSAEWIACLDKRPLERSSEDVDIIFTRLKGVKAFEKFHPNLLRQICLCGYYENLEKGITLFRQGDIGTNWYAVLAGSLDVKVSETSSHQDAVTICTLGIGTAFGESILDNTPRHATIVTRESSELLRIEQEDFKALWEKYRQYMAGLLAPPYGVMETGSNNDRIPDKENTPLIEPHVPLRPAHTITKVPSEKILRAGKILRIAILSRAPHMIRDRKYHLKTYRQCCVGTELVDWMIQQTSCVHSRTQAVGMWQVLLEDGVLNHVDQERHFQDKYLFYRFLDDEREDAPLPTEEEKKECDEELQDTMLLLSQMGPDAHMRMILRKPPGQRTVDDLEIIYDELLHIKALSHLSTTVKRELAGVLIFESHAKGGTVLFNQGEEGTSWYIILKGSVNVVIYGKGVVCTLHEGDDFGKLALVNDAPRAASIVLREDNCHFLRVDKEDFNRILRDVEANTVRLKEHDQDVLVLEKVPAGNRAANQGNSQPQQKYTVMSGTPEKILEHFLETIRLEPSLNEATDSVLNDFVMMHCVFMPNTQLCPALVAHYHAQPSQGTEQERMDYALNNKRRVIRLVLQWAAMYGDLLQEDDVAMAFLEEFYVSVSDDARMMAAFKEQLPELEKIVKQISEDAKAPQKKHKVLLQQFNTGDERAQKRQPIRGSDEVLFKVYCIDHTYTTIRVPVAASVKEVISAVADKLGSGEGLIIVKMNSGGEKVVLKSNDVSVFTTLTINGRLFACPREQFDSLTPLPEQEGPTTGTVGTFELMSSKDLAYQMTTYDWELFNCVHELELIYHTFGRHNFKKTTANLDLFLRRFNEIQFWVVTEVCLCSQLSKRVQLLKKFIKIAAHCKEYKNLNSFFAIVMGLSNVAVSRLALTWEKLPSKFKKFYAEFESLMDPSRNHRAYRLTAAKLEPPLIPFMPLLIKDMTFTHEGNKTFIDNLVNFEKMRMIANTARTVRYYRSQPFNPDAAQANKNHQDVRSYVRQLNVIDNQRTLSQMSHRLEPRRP
Method: Primary screen is performed in black 96-well or 384-well microplates. As an example, 50 nM EPAC2 solution is prepared in 20 mM Tris buffer, pH 7.5, containing 150 mM NaCl, 1 mM EDTA, and 1 mM […]. […] Sample is dispensed into plate and test compounds added from 96-well mother plates. […] Fluorescence intensity signal from 8-NBD was recorded at room temperature (rt) before and after tested compounds are added using SpectaMaxM2 microplate reader (Molecular Devices, Silicon Valley, Calif., USA) with excitation/emission wavelengths set at 470/540 nm.

EPAC1 [3] = biological target: T3, EPAC1 (Homo sapiens, UniProt O95398); assay: Rap1 activation assay in HEK293/EPAC1 cells; assay type: cell-based
T3 sequence (O95398 1-923): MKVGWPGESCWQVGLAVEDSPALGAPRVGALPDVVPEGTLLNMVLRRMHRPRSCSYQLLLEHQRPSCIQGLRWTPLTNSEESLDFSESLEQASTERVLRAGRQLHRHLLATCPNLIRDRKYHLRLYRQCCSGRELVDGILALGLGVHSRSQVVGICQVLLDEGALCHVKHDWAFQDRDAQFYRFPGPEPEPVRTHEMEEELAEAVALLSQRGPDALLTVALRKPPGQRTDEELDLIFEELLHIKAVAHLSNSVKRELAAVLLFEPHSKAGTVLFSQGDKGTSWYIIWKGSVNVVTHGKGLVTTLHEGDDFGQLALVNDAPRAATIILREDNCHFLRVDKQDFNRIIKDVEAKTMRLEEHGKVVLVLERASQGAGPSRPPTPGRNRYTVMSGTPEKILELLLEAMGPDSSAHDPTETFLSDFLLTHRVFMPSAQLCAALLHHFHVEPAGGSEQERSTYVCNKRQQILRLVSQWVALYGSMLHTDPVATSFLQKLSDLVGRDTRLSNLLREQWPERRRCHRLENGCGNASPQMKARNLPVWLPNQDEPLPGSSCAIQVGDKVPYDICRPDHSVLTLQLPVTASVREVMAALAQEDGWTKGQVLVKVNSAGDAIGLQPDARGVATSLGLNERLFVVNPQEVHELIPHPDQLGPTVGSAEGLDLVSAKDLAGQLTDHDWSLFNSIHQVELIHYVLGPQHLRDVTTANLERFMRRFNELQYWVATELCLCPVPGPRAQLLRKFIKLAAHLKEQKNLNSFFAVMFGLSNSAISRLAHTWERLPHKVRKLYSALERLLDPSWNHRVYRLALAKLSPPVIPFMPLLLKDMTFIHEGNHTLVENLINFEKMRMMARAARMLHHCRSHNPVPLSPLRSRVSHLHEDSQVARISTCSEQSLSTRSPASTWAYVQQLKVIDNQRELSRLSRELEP
Method: as §2, §3

EPAC1 [4] = biological target: T3, EPAC1; assay: Rap1-GDP exchange (GEF) activity assay, EPAC1
AsPC-1 and PANC-1 cells = assay: Cell adhesion assay on collagen I matrix; assay type: cell-based; details: stimulation with 10 μM 007-AM
Method: FIG. 13 ESI-09 inhibits EPAC1-mediated adhesion of PDA cells on collagen I. AsPC-1 and PANC-1 cells were stimulated with vehicle or 10 μM 007-AM after treatment with the indicated concentrations of ESI-09 for 5 minutes. Bars represent mean±s.d.
It has been recently reported that EPAC1 is over-expressed in pancreatic adenocarcinoma (Lorenz et al. (2008) Pancreas 37: 102-103). However, the functional role of EPAC1 elevation in this neoplasm is not clear. The inventors sought to employ ESI-09 to determine the role of EPAC1 signaling in pancreatic cancer. […] In order to determine if the observed impact on cell migration is EPAC1 specific, the effect of suppressing EPAC1 expression on AsPC-1 and PANC-1 migration using RNAi was examined. […] To further determine how ESI-09 inhibits PDA cell migration and invasion, a cell adhesion assay was performed using a collagen I matrix. […] To determine the in vivo anti-metastatic effect of ESI-09, MIA PaCa-2 stably expressing luciferase were orthotopically implanted into the pancreas of athymic nude mice. The mice were randomly divided into two groups and treated with vehicle or ESI-09 (50 mg/kg per day, oral gavage), respectively. The growth and metastasis of the tumors were monitored by weekly bioluminescence imaging using the IVIS bioluminescence imaging system.

EPAC1 [5] = biological target: T3, EPAC1; assay: Phosphorylation of Akt in HEK293/EPAC1 cells; assay type: cell-based; details: stimulation with 007-AM
Method: (§4) FIG. 10. Effect of ESI-09 on EPAC-mediated PKB phosphorylation in HEK293/EPAC1, HEK293/EPAC2, and human vascular smooth muscle (hVSMC) cells. Serum-starved HEK293/EPAC1, HEK293/EPAC2, and hVSMC cells with or without pretreatment of […] ESI-09 were stimulated with 10 μM 007-AM. Cell lysates were subjected to Western blot analysis as described under “Experimental Procedures” using anti-phospho-Ser473-specific (PKB-P473) and anti-phospho-Thr308-specific (PKB-P308) PKB antibodies.
(§5) Cellular proteins from cell lysates treated with various reagents were separated by SDS-PAGE and transferred to polyvinylidene difluoride membrane. The levels of Akt activation were probed by immuno-blotting analyses using anti-phosphate T308 PKB antibodies (1:1000) and anti-phosphate S473 PKB antibodies (1:1000). At least three independent experiments were performed for each Western blot.

EPAC2 [6] = biological target: T1, EPAC2; assay: Phosphorylation of Akt in HEK293/EPAC2 cells; assay type: cell-based; details: stimulation with 007-AM
Method: as §4, §5

T1 sequence (Q8WZA2 whole entry, species assumed): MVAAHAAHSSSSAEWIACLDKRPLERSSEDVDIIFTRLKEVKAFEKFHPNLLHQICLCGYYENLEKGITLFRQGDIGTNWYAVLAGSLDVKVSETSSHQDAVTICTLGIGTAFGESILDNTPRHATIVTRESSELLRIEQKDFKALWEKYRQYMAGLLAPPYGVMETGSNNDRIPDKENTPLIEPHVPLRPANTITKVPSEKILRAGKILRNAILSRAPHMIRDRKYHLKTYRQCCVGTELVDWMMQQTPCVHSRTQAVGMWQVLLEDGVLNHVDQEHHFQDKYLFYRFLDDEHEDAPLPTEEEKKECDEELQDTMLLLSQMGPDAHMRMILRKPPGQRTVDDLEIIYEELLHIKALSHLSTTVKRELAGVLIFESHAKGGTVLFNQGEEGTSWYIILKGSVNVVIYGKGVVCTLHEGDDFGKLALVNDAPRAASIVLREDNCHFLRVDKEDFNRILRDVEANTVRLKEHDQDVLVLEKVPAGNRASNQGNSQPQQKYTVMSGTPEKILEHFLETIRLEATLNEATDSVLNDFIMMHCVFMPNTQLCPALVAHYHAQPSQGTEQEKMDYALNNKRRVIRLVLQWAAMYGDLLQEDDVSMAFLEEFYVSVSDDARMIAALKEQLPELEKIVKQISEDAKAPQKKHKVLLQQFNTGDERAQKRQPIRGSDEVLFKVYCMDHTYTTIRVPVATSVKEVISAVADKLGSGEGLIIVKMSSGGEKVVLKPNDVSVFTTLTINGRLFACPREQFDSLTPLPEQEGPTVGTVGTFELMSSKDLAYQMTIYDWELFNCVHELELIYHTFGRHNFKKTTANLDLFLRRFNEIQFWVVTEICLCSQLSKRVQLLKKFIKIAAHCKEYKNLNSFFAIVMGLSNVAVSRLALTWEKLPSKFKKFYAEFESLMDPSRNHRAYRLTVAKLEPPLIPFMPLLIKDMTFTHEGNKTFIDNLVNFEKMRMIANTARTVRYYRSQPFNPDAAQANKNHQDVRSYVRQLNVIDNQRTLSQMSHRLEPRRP

O=S(=O)(NCCNC/C=C/c1ccc(Br)cc1)c1cccc2cnccc12 [Compound H89, reference compound]
cAMP-induced type I PKA holoenzyme activation (type I PKA holoenzyme): blocked the type I or II PKA activities completely | cAMP-induced type II PKA holoenzyme activation (type II PKA holoenzyme): blocked the type I or II PKA activities completely

Cc1ccc(C)c(CSc2nc(C3CCCCC3)c(C#N)c(=O)[nH]2)c1 [ESI-08]
007-AM induced Rap1 activation (EPAC2 [1]): much less effective | Relative Potency (RA) (EPAC2 [2]; RA = IC50, cAMP/IC50, compound): 4.5 | IC50 (EPAC2 [2]; competing with 8-NBD-cAMP in binding EPAC2, read-out: Apparent IC50): 8.7 ± 1.1 µM

Cc1ccc(S(=O)(=O)c2c(C)cc(C)cc2C)cc1 [ESI-05]
007-AM induced Rap1 activation (EPAC1 [3]): ineffective | 007-AM induced Rap1 activation (EPAC2 [1]): significant reduction | cAMP-induced type I PKA holoenzyme activation (type I PKA holoenzyme): did not significantly alter | suppressing EPAC1 GEF activity (EPAC1 [4]; cAMP-mediated Rap1-GDP exchange): completely ineffective | EPAC1 IC50 (EPAC1 [4]; suppressing EPAC1 GEF activity, 25 μM cAMP): NMA* | cAMP-induced type II PKA holoenzyme activation (type II PKA holoenzyme): did not significantly alter

CO[C@@H]1[C@@H]2OP(=O)(OCOC(C)=O)OC[C@H]2O[C@H]1n1c(Sc2ccc(Cl)cc2)nc2c(N)ncnc21 (stereo partly drawn) [Compound 007-AM, 8-(4-Chlorophenylthio)-2′-O-methyladenosine-3′,5′-cyclic monophosphate, acetoxymethyl ester, reference compound]
fraction of GTP-bound cellular Rap1 (EPAC2 [1]; HEK293/EPAC2 cells treated with 007-AM): increase | cell adhesion (AsPC-1 and PANC-1 cells): increase | Akt phosphorylation for both T308 and S473 (EPAC1 [5]): increase | Akt phosphorylation for both T308 and S473 (EPAC2 [6]): increase
